Legend:
Type in all cases: in vivo
[1] = test system: AMAPA; experiment: Pre-emergence biological efficacy; details: Amaranthus palmeri, 312 h, evaluated after 13 days, read-out: damage to plant (100=total damage to plant; 0=no damage to plant)
Procedure: (§1) Seeds of weeds and/or crops were sown in standard soil in pots. After cultivation for one day under controlled conditions in a glasshouse (at 24/19° C., day/night; 16 hours light), the plants were sprayed with an aqueous spray solution derived from the formulation of the technical active ingredient in a small amount of acetone and a special solvent and emulsifier mixture referred to as IF50 (11.12% Emulsogen EL360 TM+44.44% N-methylpyrrolidone+44.44% Dowanol DPM glycol ether), to create a 50g/l solution which was then diluted using 0.2% Genapol XO80 as diluent to give the desired final dose of test compound.
(§2) The test plants were then grown under controlled conditions in the glasshouse (at 24/18° C., day/night; 15 hours light; 50% humidity) and watered twice daily. After 13 days the test was evaluated (100=total damage to plant; 0=no damage to plant).

[2] = test system: ECHCG; experiment: Pre-emergence biological efficacy; details: Echinochloa crus-galli, 312 h, evaluated after 13 days, read-out: damage to plant (100=total damage to plant; 0=no damage to plant)
Procedure: as §1, §2

[3] = test system: EPHHL; experiment: Pre-emergence biological efficacy; details: Euphorbia heterophylla, 312 h, evaluated after 13 days, read-out: damage to plant (100=total damage to plant; 0=no damage to plant)
Procedure: as §1, §2

[4] = test system: IPOHE; experiment: Pre-emergence biological efficacy; details: Ipomoea hederacea, 312 h, evaluated after 13 days, read-out: damage to plant (100=total damage to plant; 0=no damage to plant)
Procedure: as §1, §2

[5] = test system: LOLPE; experiment: Pre-emergence biological efficacy; details: Lolium perenne, 312 h, evaluated after 13 days, read-out: damage to plant (100=total damage to plant; 0=no damage to plant)
Procedure: as §1, §2

[6] = test system: SETFA; experiment: Pre-emergence biological efficacy; details: Setaria faberi, 312 h, evaluated after 13 days, read-out: damage to plant (100=total damage to plant; 0=no damage to plant)
Procedure: as §1, §2

[7] = test system: AMAPA; experiment: Post-emergence biological efficacy; details: Amaranthus palmeri, 312 h, evaluated after 13 days, read-out: damage to plant (100=total damage to plant; 0=no damage to plant)
Procedure: as §1, with “14 days” for “one day”
(§3) The test plants were then grown under controlled conditions in the glasshouse (at 24/18° C., day/night; 15 hours light; 50% humidity)and watered twice daily. After 13 days the test was evaluated (100=total damage to plant; 0=no damage to plant).

[8] = test system: CHEAL; experiment: Post-emergence biological efficacy; details: Chenopodium album, 312 h, evaluated after 13 days, read-out: damage to plant (100=total damage to plant; 0=no damage to plant)
Procedure: as §1, with “14 days” for “one day”
as §3

[9] = test system: DIGSA; experiment: Post-emergence biological efficacy; details: Digitaria sanguinalis, 312 h, evaluated after 13 days, read-out: damage to plant (100=total damage to plant; 0=no damage to plant)
Procedure: as §1, with “14 days” for “one day”
as §3

[10] = test system: ECHCG; experiment: Post-emergence biological efficacy; details: Echinochloa crus-galli, 312 h, evaluated after 13 days, read-out: damage to plant (100=total damage to plant; 0=no damage to plant)
Procedure: as §1, with “14 days” for “one day”
as §3

[11] = test system: ELEIN; experiment: Post-emergence biological efficacy; details: 312 h, evaluated after 13 days, read-out: damage to plant (100=total damage to plant; 0=no damage to plant)
Procedure: as §1, with “14 days” for “one day”
as §3

[12] = test system: EPHHL; experiment: Post-emergence biological efficacy; details: Euphorbia heterophylla, 312 h, evaluated after 13 days, read-out: damage to plant (100=total damage to plant; 0=no damage to plant)
Procedure: as §1, with “14 days” for “one day”
as §3

[13] = test system: IPOHE; experiment: Post-emergence biological efficacy; details: Ipomoea hederacea, 312 h, evaluated after 13 days, read-out: damage to plant (100=total damage to plant; 0=no damage to plant)
Procedure: as §1, with “14 days” for “one day”
as §3

[14] = test system: LOLPE; experiment: Post-emergence biological efficacy; details: Lolium perenne, 312 h, evaluated after 13 days, read-out: damage to plant (100=total damage to plant; 0=no damage to plant)
Procedure: as §1, with “14 days” for “one day”
as §3

[15] = test system: SETFA; experiment: Post-emergence biological efficacy; details: Setaria faberi, 312 h, evaluated after 13 days, read-out: damage to plant (100=total damage to plant; 0=no damage to plant)
Procedure: as §1, with “14 days” for “one day”
as §3

Compound | pest or weed control at 250 g/ha [1] [%] | pest or weed control at 250 g/ha [2] [%] | pest or weed control at 250 g/ha [3] [%] | pest or weed control at 250 g/ha [4] [%] | pest or weed control at 250 g/ha [5] [%] | pest or weed control at 250 g/ha [6] [%] | pest or weed control at 250 g/ha [7] [%] | pest or weed control at 250 g/ha [8] [%] | pest or weed control at 250 g/ha [9] [%] | pest or weed control at 250 g/ha [10] [%] | pest or weed control at 250 g/ha [11] [%] | pest or weed control at 250 g/ha [12] [%] | pest or weed control at 250 g/ha [13] [%] | pest or weed control at 250 g/ha [14] [%] | pest or weed control at 250 g/ha [15] [%]
CCOC(=O)C1(C)CC(c2cc(-c3ccc(C(F)(F)F)cn3)c(F)cc2Cl)=NO1 (stereo not drawn) [Compound 1-79, Ethyl 3-[2-chloro-4-fluoro-5-[5-(trifluoromethyl)-2-pyridyl]phenyl]-5-methyl-4H-isoxazole-5-carboxylate] | 50 | 80 | 60 | 100 | 40 | 60 | 100 | 100 | 100 | 100 | 90 | 100 | 100 | 100 | 100
CCOC(=O)C1(C)CC(c2cc(-c3ncc(C(F)(F)F)cc3F)c(F)cc2Cl)=NO1 (stereo not drawn) [Compound 1-91, Ethyl 3-[2-chloro-4-fluoro-5-[3-fluoro-5-(trifluoromethyl)-2-pyridyl]-phenyl]-5-methyl-4H-isoxazole-5-carboxylate] | 100 | 100 | 100 | 100 | 90 | 100 | 100 | 100 | 100 | 100 | 100 | 100 | 100 | 100 | 100
CCOC(=O)C1(C)CC(c2cc(-c3ncc(C(F)(F)F)cc3Cl)ccc2Cl)=NO1 (stereo not drawn) [Compound 1-99, Ethyl 3-[2-chloro-5-[3-chloro-5-(trifluoromethyl)-2-pyridyl]-phenyl]-5-methyl-4H-isoxazole-5-carboxylate] | 100 | 100 | 100 | 100 | 80 | 100 | 100 | 100 | 100 | 100 | 100 | 100 | 100 | 100 | 100
CC1(C(=O)O)CC(c2cc(-c3ncc(C(F)(F)F)cc3Cl)c(F)cc2Cl)=NO1 (stereo not drawn) [Compound 1-101, 3-[2-chloro-5-(3-chloro-5-trifluoromethyl-2-pyridyl)-4-fluoro-phenyl]-5-methyl-4H-isoxazole-5-carboxylic acid] | 100 | 100 | 100 | 100 | 80 | 100 | 100 | 100 | 100 | 100 | 100 | 100 | 100 | 100 | 100
CCOC(=O)C1(C)CC(c2cc(-c3ncc(C(F)(F)F)cc3Cl)c(F)cc2Cl)=NO1 (stereo not drawn) [Compound 1-103, Ethyl 3-[2-chloro-5-(3-chloro-5-trifluoromethyl-2-pyridyl)-4-fluoro-phenyl]-5-methyl-4H-isoxazole-5-carboxylate] | 100 | 90 | 100 | 100 | 80 | 80 | 100 | 100 | 100 | 100 | 100 | 100 | 100 | 100 | 100
CCOC(=O)C1(C)CC(c2cc(-c3ncc(Cl)cc3Cl)c(F)cc2Cl)=NO1 (stereo not drawn) [Compound 1-115, Ethyl 3-[2-chloro-5-(3,5-dichloro-2-pyridyl)-4-fluoro-phenyl]-5-methyl-4H-isoxazole-5-carboxylate] | 100 | 80 | 100 | 80 | 50 | 60 | 100 | 100 | 100 | 100 | 100 | 100 | 100 | 100 | 100
CCOC(=O)C1(C)CC(c2cc(-c3ncccc3Cl)c(F)cc2Cl)=NO1 (stereo not drawn) [Compound 1-127, Ethyl 3-[2-chloro-5-(3-chloro-2-pyridyl)-4-fluoro-phenyl]-5-methyl-4H-isoxazole-5-carboxylate] | 40 | 50 | 100 | 50 | 20 | 70 | 100 | 100 | 50 | 90 | 30 | 80 | 100 | 10 | 100
CCOC(=O)C1(C)CC(c2cc(-c3ccccn3)c(F)cc2Cl)=NO1 (stereo not drawn) [Compound 1-139, Ethyl 3-[2-chloro-4-fluoro-5-(2-pyridyl)phenyl]-5-methyl-4H-isoxazole-5-carboxylate] | 0 | 0 | 0 | 0 | 0 | 0 | 0 | 0 | 0 | 0 | 0 | 10 | 20 | 0 | 10
CCOC(=O)C1(C)CC(c2cc(-c3ncc(C)cc3Cl)c(F)cc2Cl)=NO1 (stereo not drawn) [Compound 1-175, Ethyl 3-[2-chloro-5-(3-chloro-5-methyl-2-pyridyl)-4-fluoro-phenyl]-5-methyl-4H-isoxazole-5-carboxylate] | 30 | 60 | 60 | 50 | 20 | 80 | 100 | 100 | 70 | 100 | 70 | 100 | 100 | 90 | 100

— patent US20240124432A1, “HERBICIDAL COMPOUNDS” (SYNGENTA CROP PROTECTION AG, priority 2020, published 2024)
